# ChEMBL document CHEMBL1147290, “Toxicants from mangrove plants, V. Isolation of the piscicide, 2-hydroxy-5-methoxy-3-undecyl-1,4 benzoquinone (5-O-methylembelin) from Aegiceras corniculatum” (J Nat Prod, 1989)
# Tests used:
# Oreochromis niloticus = assay: Toxicity in Tilapia nilotica at 1 ppm within 75 mins; format: organism-based; conditions: in vivo, 1.25 h
# Globisporangium ultimum = assay: Antifungal activity against Pythium ultimum at 1 mg; format: functional; conditions: read-out: IZ
compound,measurement,setting,value
CCCCCCCCCCCC1=C(O)C(=O)C=C(OC)C1=O [5-O-METHYLEMBELIN],Activity,Oreochromis niloticus,Toxic
same,zone of inhibition at 1000 µg/disc,Globisporangium ultimum,8 mm
